# Experimental data published in patent publication US20260224658A1, “PRODUCTS AND METHODS FOR THE DIAGNOSIS AND TREATMENT OF P[…]” (priority 2023, published 2026).
# Tests used:
# Type in all cases: cell-based, Pseudomonas aeruginosa
# [1] = test system: MPAO1; test: microbe, parasite or virus in culture; conditions: strain MPAO1; for MIC: Pseudomonas aeruginosa, read-out: MIC, average of triplicates
# Description: (§1) MIC experiments were performed using biological triplicates.
# [2] = test system: PAO1; test: microbe, parasite or virus in culture; conditions: strain PAO1; for MIC: Pseudomonas aeruginosa, read-out: MIC, average of triplicates
# Description: as §1
# [3] = test system: MPAO1-ΔmutL; test: MIC, microbroth dilution assay; conditions: for MIC: Pseudomonas aeruginosa, read-out: MIC, average of triplicates
# Description: as §1
# [4] = test system: MPAO1-ΔmutS; test: MIC, microbroth dilution assay; conditions: for MIC: Pseudomonas aeruginosa, read-out: MIC, average of triplicates
# Description: as §1
# [5] = test system: MPAO1; test: In vitro adaptive evolution (serial passaging) with MIC determination; conditions: for MIC: Pseudomonas aeruginosa
# Description: (§2) MICs were determined via microbroth dilution assay in 96-well culture plates with 2-fold serial dilutions of tested antibiotic in Mueller-Hinton (cation-adjusted) broth, inoculated with 50 μL of 2.75×10^5 CFU/mL of each bacterial strain and incubated at 37° C., 200 rpm for 24 hours. MIC experiments were performed using biological triplicates.
# (§3) Serial passaging of bacterial strains was performed in 96-well culture plates with 2-fold serial dilutions of antibiotic in MH broth, inoculated with 50 μL 2.75×10^5 CFU/mL of each strain and incubated at 37° C., 200 rpm for 24 hours. […] The bacteria were then serially passaged in the same antibiotic and MIC determined for all antibiotics (aztreonam, ciprofloxacin, D-CONGA, D-CONGA-Q7, polymyxin B). See Antimicrobial susceptibility testing section. The bacteria were serially passaged a total of 10 times.
# (§4) All resistance acquisition data was analyzed in units of fold-change to normalize for differences in starting MIC across strains. Fold-change in MIC data for all strains and treatment groups was natural log-transformed and simple linear regression was performed considering each replicate fold-change value as an individual point. Slope, standard error of slope, and total number of values of each treatment group of interest were analyzed via unpaired t-test (ΔmutS vs WT) or ordinary one-way ANOVA (cross-resistance acquisition of ΔmutS+AB vs −AB vs WT), and α-values were corrected for multiple comparisons using the Bonferroni method. Differences in estimated mutation rate across treatment groups were determined via ordinary one-way ANOVA (Brown-Forsythe test). For all statistical tests, p<0.05 was considered significant. All figures were created and statistical tests were done using GraphPad Prism 9.3.1.
# [6] = test system: MPAO1-ΔmutL; test: as above
# Description: as §2, §3, §4
# [7] = test system: MPAO1-ΔmutS; test: as above; conditions: for MIC: Pseudomonas aeruginosa
# Description: as §2, §3, §4
# [8] = MPAO1 evolved in AZ + D-CONGA-Q7
# [9] = MPAO1 passaged with No Antibiotic (Table 4)
# [10] = MPAO1 passaged with No Antibiotic (Table 8)
# [11] = MPAO1-ΔmutL evolved in Chl + Str
# [12] = MPAO1-ΔmutL passaged with No Antibiotic
# [13] = MPAO1-ΔmutS evolved in AZ + COL
# [14] = MPAO1-ΔmutS evolved in AZ + D-CONGA
# [15] = MPAO1-ΔmutS evolved in AZ + D-CONGA-Q7
# [16] = MPAO1-ΔmutS evolved in D-CONGA-Q7
# [17] = MPAO1-ΔmutS passaged with No Antibiotic (Table 4)
# [18] = MPAO1-ΔmutS passaged with No Antibiotic (Table 8)
compound,measurement,setting,value
Polymyxin B,"MIC, average of triplicates",[1],2 µg/mL
same,"MIC, average of triplicates",[2],2 µg/mL
same,"MIC, average of triplicates",[3]; strain ΔmutL,3 µg/mL
same,"MIC, average of triplicates",[4]; strain ΔmutS,2 µg/mL
same,Average MIC at end point,[5]; MPAO1 evolved in AZ,3 µg/mL
same,fold-change relative to starting MIC before treatment,[5]; MPAO1 evolved in AZ,1.3
same,Average MIC at end point,[5]; MPAO1 evolved in AZ + COL,2 µg/mL
same,fold-change relative to starting MIC before treatment,[5]; MPAO1 evolved in AZ + COL,1
same,Average MIC at end point,[5]; MPAO1 evolved in AZ + D-CONGA,2 µg/mL
same,fold-change relative to starting MIC before treatment,[5]; MPAO1 evolved in AZ + D-CONGA,1
same,Average MIC at end point,[5]; [8],2 µg/mL
same,fold-change relative to starting MIC before treatment,[5]; [8],1
same,Average MIC at end point,[5]; MPAO1 evolved in COL,2 µg/mL
same,fold-change relative to starting MIC before treatment,[5]; MPAO1 evolved in COL,1
same,Average MIC at end point,[5]; MPAO1 evolved in Chl,2 µg/mL
same,fold-change relative to starting MIC before treatment,[5]; MPAO1 evolved in Chl,1
same,Average MIC at end point,[5]; MPAO1 evolved in D-CONGA,4 µg/mL
same,fold-change relative to starting MIC before treatment,[5]; MPAO1 evolved in D-CONGA,2.4
same,Average MIC at end point,[5]; MPAO1 evolved in D-CONGA-Q7,2 µg/mL
same,fold-change relative to starting MIC before treatment,[5]; MPAO1 evolved in D-CONGA-Q7,1
same,Average MIC at end point,[5]; [9],1 (1) μg/mL
same,fold-change relative to starting MIC before treatment,[5]; [9],1 (1)
same,Average MIC at end point,[5]; [10],2 µg/mL
same,fold-change relative to starting MIC before treatment,[5]; [10],1
same,Average MIC at end point,[6]; [11],0.5 µg/mL
same,fold-change relative to starting MIC before treatment,[6]; [11],0.25
same,Average MIC at end point,[6]; [12],2 µg/mL
same,fold-change relative to starting MIC before treatment,[6]; [12],0.6
same,Average MIC at end point,[7]; MPAO1-ΔmutS evolved in AZ,2 µg/mL
same,fold-change relative to starting MIC before treatment,[7]; MPAO1-ΔmutS evolved in AZ,1
same,Average MIC at end point,[7]; [13],2 µg/mL
same,fold-change relative to starting MIC before treatment,[7]; [13],1
same,Average MIC at end point,[7]; [14],2 µg/mL
same,fold-change relative to starting MIC before treatment,[7]; [14],1
same,Average MIC at end point,[7]; [15],2 µg/mL
same,fold-change relative to starting MIC before treatment,[7]; [15],1
same,Average MIC at end point,[7]; MPAO1-ΔmutS evolved in COL,27 µg/mL
same,fold-change relative to starting MIC before treatment,[7]; MPAO1-ΔmutS evolved in COL,8
same,Average MIC at end point,[7]; MPAO1-ΔmutS evolved in Chl,2 µg/mL
same,fold-change relative to starting MIC before treatment,[7]; MPAO1-ΔmutS evolved in Chl,1
same,Average MIC at end point,[7]; MPAO1-ΔmutS evolved in D-CONGA,3 µg/mL
same,fold-change relative to starting MIC before treatment,[7]; MPAO1-ΔmutS evolved in D-CONGA,1.33
same,Average MIC at end point,[7]; [16],4 µg/mL
same,fold-change relative to starting MIC before treatment,[7]; [16],2
same,Average MIC at end point,[7]; [17],2 µg/mL
same,fold-change relative to starting MIC before treatment,[7]; [17],1
same,Average MIC at end point,[7]; [18],2 µg/mL
same,fold-change relative to starting MIC before treatment,[7]; [18],1
O=C(N[C@H](CO)[C@H](O)c1ccc([N+](=O)[O-])cc1)C(Cl)Cl [Chloramphenicol],MIC,[1],≥ 400 µg/mL
same,MIC,[2],400 µg/mL
same,MIC,[3],400 µg/mL
same,MIC,[4],≥ 400 µg/mL
same,susceptibility of the strains before evolution (summary of Table 3),[4]; wild type and mutS-deficient MPAO1,anticipated intrinsic resistance
same,cross-resistance induced by treatment,[5]; antibiotic-treated wild type MPAO1,no cross resistance developed
same,cross-resistance to antibiotics induced by treatment,[7]; MPAO1-ΔmutS evolved in the named drug,induced cross-resistance to antibiotics in a different class such as ciprofloxacin
O=C(O)c1cn(C2CC2)c2cc(N3CCNCC3)c(F)cc2c1=O [Ciprofloxacin],MIC,[1],0.5 µg/mL
same,MIC,[2],0.25 µg/mL
same,MIC,[3],0.3 µg/mL
same,MIC,[4],1 µg/mL
same,MIC,"[5]; read-out: Average MIC at end point, MPAO1 evolved in AZ",0.25 µg/mL
same,MIC,"[5]; read-out: Average MIC at end point, MPAO1 evolved in AZ + COL",2 µg/mL
same,MIC,"[5]; read-out: Average MIC at end point, MPAO1 evolved in AZ + D-CONGA",0.7 µg/mL
same,MIC,"[5]; read-out: Average MIC at end point, MPAO1 evolved in AZ + D-CONGA-Q7",0.8 µg/mL
same,MIC,"[5]; read-out: Average MIC at end point, MPAO1 evolved in COL",2 µg/mL
same,MIC,"[5]; read-out: Average MIC at end point, MPAO1 evolved in Chl",1 µg/mL
same,MIC,"[5]; read-out: Average MIC at end point, MPAO1 evolved in Chl + Str",2 µg/mL
same,MIC,"[5]; read-out: Average MIC at end point, MPAO1 evolved in D-CONGA",1 µg/mL
same,MIC,"[5]; read-out: Average MIC at end point, MPAO1 evolved in D-CONGA-Q7",0.75 µg/mL
same,MIC,"[5]; read-out: Average MIC at end point, MPAO1 passaged with No Antibiotic (Table 4)",2 µg/mL
same,MIC,"[5]; read-out: Average MIC at end point, MPAO1 passaged with No Antibiotic (Table 8)",0.8 µg/mL
same,MIC,"[7]; read-out: Average MIC at end point, MPAO1-ΔmutS evolved in AZ",4 µg/mL
same,MIC,"[7]; read-out: Average MIC at end point, MPAO1-ΔmutS evolved in AZ + COL",2 µg/mL
same,MIC,"[7]; read-out: Average MIC at end point, MPAO1-ΔmutS evolved in AZ + D-CONGA",0.8 µg/mL
same,MIC,"[7]; read-out: Average MIC at end point, MPAO1-ΔmutS evolved in AZ + D-CONGA-Q7",0.7 µg/mL
same,MIC,"[7]; read-out: Average MIC at end point, MPAO1-ΔmutS evolved in Chl",8 µg/mL
